The test system of experiment [1] is Platelet aggregation in PRP (dog). The experiment is described as follows: In-Vitro Platelet Aggregation in PRP (Dog), collagen-induced. Format: cell-based. The following applies: collagen 33 μg/ml final. As for the experimental part:
In-Vitro Platelet Aggregation in PRP--(Dog)
Healthy male or female dogs were fasted for 8 hours prior to drawing blood; then 60 ml whole blood was collected using a butterfly needle and 60 cc plastic syringe with 6 ml of 0,129 M buffered sodium citrate (3.8%) (drawn from a minimum of 3 dogs and blood was pooled). The syringe was rotated carefully as blood was drawn to mix the citrate. Platelet-rich plasma (PRP) was prepared by centrifugation at 975×g for 3.17 minutes at room temperature, allowing the centrifuge to coast to a stop without braking. The PRP was removed from the blood with a plastic pipette and placed in a plastic capped 50 ml Corning conical sterile centrifuge tube which was held at room temperature. Platelet poor plasma (PPP) was prepared by centrifuging the remaining blood at 2000×g for 15 minutes at room temperature allowing the centrifuge to coast to a stop without braking. The platelet count in the PRP was routinely 2-4×10^8 platelets per ml. 400 μl of the PRP preparation and 50 μl of the compound to be tested or saline were preincubated for 2 minutes at 37° C. in a BioData aggregometer (BioData, Horsham, Pa.). 50 μl of collagen (diluted 1:3 with 5% dextrose and water solution, 33 μg/ml final concentration, equine tendon, Chronolog, Havertown, Pa.) was added to the cuvettes and the aggregation was monitored for 3 minutes. All compounds are tested in duplicate. Results are calculated as follows: [formula]
The assay results for the compounds of the present invention and their median inhibitory concentrations (IC50) are recorded in Tables I-III.

Experiment [2] has as its system collagen-induced platelet aggregation. The experiment is described as follows: Oral (IG) administration of compound (ester) to dogs; inhibition of collagen-induced platelet aggregation. The experiment is classed as in vivo. The following applies: dog. As for the experimental part:
Oral Administration of Compound
Dogs (n=2) were weighed and two control blood samples (2×2 ml) were drawn via venipuncture from the cephalic vein. Blood was centrifuged at 266×g for 6 minutes to prepare PRP. Percent aggregation prior to compound administration (baseline) was established by adding 50 μl of collagen to 450 μl of PRP and measuring aggregation for 4 minutes. Compound (in the ester form) was administered orally (single dose) by gelatin capsule. Blood samples (2×2 ml) were drawn at selected time intervals after dosing. Inhibition of collagen-induced platelet aggregation was determined by comparing aggregation responses in the samples containing compound with the responses of samples before compound administration (baseline). The remaining blood was centrifuged for 2 minutes at 12,000 ×g to prepare PPP for determination of concentration of compound in the plasma samples by bioassay (see below).

Experiment [3] shares this test system. As to the kind of experiment: I.V. compound (acid) administration to dogs; inhibition of collagen-induced platelet aggregation. The note with it: dog, 1 mg/kg. The experiment is classed as in vivo. Here is the method:
I.V. Compound Administration
Dogs were placed in a dog sling. Two control blood samples (2×2 ml) were collected and PRP was prepared and percent aggregation was determined to establish a baseline as stated above. Compound (in the acid form) in 4 ml of saline/water (50:50) was injected into the cephalic vein over one minute with a syringe connected to a 23 g butterfly infusion set. Blood samples (2×2 ml) were drawn at 5 minute intervals after dosing for the first 15 minutes, 15 minute intervals until 60 minutes, 30 minute intervals until 2 hours, hourly until ~6 hours, again at 24 hours or until baseline aggregation was reached. PRP was prepared for aggregation studies as previously described. PPP was prepared for determination of concentration of compound by bioassay (see below).

Where [4] appears, read: Canis lupus familiaris, Platelet.

These results are taken from patent publication US5430043A, “Platelet aggregation inhibitors” (G. D. Searle & Co., priority 1993, dated 1995).

Counter-ions that a name gives are not always drawn.

As for `COC(=O)CC(CC(=O)O)NC(=O)CN1CCN(c2ccc(C(=N)N)cc2)C1=O` (racemic) [Example 14, (±)Methylhydrogen3-[[[[1-[4-(aminoiminomethyl)phenyl]-4,5-dihydro-2(3H)-oxo-1H-imidazol-3-yl]methyl]carbonyl]amino]pentanedioate], the IC50 (commonly the point on the concentration scale where inhibition reaches its midpoint) in experiment [1] (setting [4]) came out at 180 nM. That is a sub-micromolar value.

As for `C=CC(CC(=O)OCC)NC(=O)Cn1ccn(-c2ccc(C(=N)N)cc2)c1=O` (stereo in doubt) [Example 11, Ethyl 3-[[[[1-[4-(aminoiminomethyl)phenyl]-2(3H)-oxo-1H-imidazol-3-yl]methyl]carbonyl]amino]pent-4(3S)-enoate trifluoroacetate], in experiment [2] (5 mg/kg), the “Hours duration (IG - ester)” value came out at 24 h. Moreover, the “% inhibition (IG - ester)” value in experiment [2] (5 mg/kg, 24 hr) is 35%. The “Max % inhibition (IG - ester)” value in experiment [2] (5 mg/kg, max @ 3 hours) is reported as 71%.

For `C=CC(CC(=O)O)NC(=O)Cn1ccn(-c2ccc(C(=N)N)cc2)c1=O` (stereo in doubt) [Example 12, 3-[[[[1-[4-(aminoiminomethyl)phenyl]-2(3H)-oxo-1H-imidazol-3-yl]methyl]carbonyl]amino]-4(3S)-pentenoic acid trifluoroacetate], the “Hours duration (IV - acid)” value in experiment [3] worked out at 6 h. Also, in experiment [3] (6 hr), the “% inhibition (IV - acid)” value is on record as 54%. Besides, the IC50 in experiment [1] (setting [4]) turned out to be 650 nM.

`N=C(N)c1ccc(-n2ccn(CC(=O)NCCC(=O)O)c2=O)cc1` [Example 3, 3-[[[[1-[4-(aminoiminomethyl)phenyl]-2(3H)-oxo-1H-imidazol-3-yl]methyl]carbonyl]amino]propanoic acid, trifluoroacetate]: the IC50 in experiment [1] (setting [4]) turned out to be 2000 nM.

Take `N=C(N)c1ccc(-n2ccn(CC(=O)NCCCC(=O)O)c2=O)cc1` [Example 4, 4-[[[[1-[4-(aminoiminomethyl)phenyl]-2(3H)-oxo-1H-imidazol-3-yl]methyl]carbonyl]amino]butanoic acid trifluoroacetate]: the inhibition (usually how much of the control response was suppressed) at 1 µM in experiment [1] (setting [4]) stood at 0%.

On to `N=C(N)c1ccc(N2CCN(CC(=O)NCCC(=O)O)C2=O)cc1` [Example 5, 3-[[[[1-[4-(aminoiminomethyl)phenyl]-4,5-dihydro-2(3H]-oxo-1H-imidazol-3-yl]methyl]carbonyl]amino]propanoic acid, trifluoroacetate], for which, in experiment [3], the “Hours duration (IV - acid)” value is 24 h. Also, the “% inhibition (IV - acid)” value in experiment [3] (24 hr) is recorded as 31%. This compound also gave an IC50 in experiment [1] (setting [4]) of 190 nM.

For `N=C(N)c1ccc(N2CCN(CC(=O)NCCCC(=O)O)C2=O)cc1` [Example 7, 4-[[[[1-[4-(Aminoiminomethyl)phenyl]-4,5-dihydro-2(3H)-oxo-1H-imidazol-3-yl]methyl]carbonyl]amino]butanoic acid], the IC50 in experiment [1] (setting [4]) was 1100 nM.

In the case of `CCOC(=O)CCNC(=O)CN1CCN(c2ccc(C(=N)N)cc2)C1=O` [Example 8, Ethyl 3-[[[[1-[4-(aminoiminomethyl)phenyl]-4,5-dihydro-2(3H)-oxo-1H-imidazol-3-yl]methyl]carbonyl]amino]propanoate], in experiment [2] (2.5 mg/kg), the “Hours duration (IG - ester)” value was 3.1 h. Also, in experiment [2] (2.5 mg/kg, 3.1 hr), the “% inhibition (IG - ester)” value is 16%.

In the case of `CCOC(=O)CC(C)NC(=O)Cn1ccn(-c2ccc(C(=N)N)cc2)c1=O` (stereo not shown) [Example 9, Ethyl 3-[[[[1-[4-(aminoiminomethyl)phenyl]-2(3H)-oxo-1H-imidazol-3-yl]methyl]carbonyl]amino]butanoate trifluoroacetate], in experiment [2] (10 mg/kg), the “Hours duration (IG - ester)” value stood at 4.5 h. For the same compound, the “% inhibition (IG - ester)” value in experiment [2] (10 mg/kg, 4.5 hr) was 33%.

The compound `CC(CC(=O)O)NC(=O)Cn1ccn(-c2ccc(C(=N)N)cc2)c1=O` (stereo not shown) [Example 10, 3-[[[1-[4-(aminoiminomethyl)phenyl]-2(3H)-oxo-1H-imidazol-3-yl]methyl]carbonyl]amino]butanoic acid trifluoroacetate] came in with an IC50 in experiment [1] (setting [4]) of 620 nM.

For `COC(=O)CC(CC(=O)OC)NC(=O)CN1CCN(c2ccc(C(=N)N)cc2)C1=O` [Example 13, Dimethyl 3-[[[[1-[4-(aminoiminomethyl)phenyl]-4,5-dihydro-2(3H)-oxo-1H-imidazol-3-yl]methyl]carbonyl]amino]pentanedioate], in experiment [2] (5 mg/kg), the “Hours duration (IG - ester)” value was found to be 24 h. Also, in experiment [2] (5 mg/kg, 24 hr), the “% inhibition (IG - ester)” value is 14%. Further, the “Max % inhibition (IG - ester)” value in experiment [2] (5 mg/kg, max @ 6 hours) is on record as 63%.

Turning to `N=C(N)c1ccc(-n2ccn(CCC(=O)NCCC(=O)O)c2=O)cc1` [Example 16, 3-[[[[1-[4-(aminoiminomethyl)phenyl]-2(3H)-oxo-1H-imidazol-3-yl]ethyl]carbonyl]amino]propanoic acid], in experiment [1] (setting [4]), half-maximal inhibition (IC50) was put at 340 nM.

With `CCOC(=O)CC(NC(=O)Cn1ccn(-c2ccc(C(=N)N)cc2)c1=O)c1ccoc1` (stereo not drawn) [Example 19, Ethyl β-[[[[1-[4-(aminoiminomethyl)phenyl]-2(3H)-oxo-1H-imidazol-3-yl]-methyl]carbonyl]amino]-3-furanpropanoate trifluoroacetate], the “Hours duration (IG - ester)” value in experiment [2] (10 mg/kg) was determined as 24 h. Further, the “% inhibition (IG - ester)” value in experiment [2] (10 mg/kg, 24 hr) was determined as 28%. Moreover, the “Max % inhibition (IG - ester)” value in experiment [2] (10 mg/kg, max @ 6 hours) is given as 85%.

Consider `N=C(N)c1ccc(-n2ccn(CC(=O)NC(CC(=O)O)c3ccoc3)c2=O)cc1` (stereo not drawn) [Example 20, β-[[[[1-[4-(aminoiminomethyl)phenyl]-2(3H)-oxo-1H-imidazol-3-yl]methyl]carbonyl]amino]-3-furanpropanoic acid trifluoroacetate], for which, in experiment [1] (setting [4]), the concentration for half-maximal inhibition (IC50) was 700 nM.

Regarding `CCOC(=O)CC(NC(=O)Cn1ccn(-c2ccc(C(=N)N)cc2)c1=O)c1cccnc1` (stereo not drawn) [Example 21, Ethyl β-[[[[1-[4-(aminoiminomethyl)phenyl]-2(3H)-oxo-1H-imidazol-3-yl]methyl]carbonyl]amino]-3-pyridinepropanoate], the “Hours duration (IG - ester)” value in experiment [2] (10 mg/kg) was found to be 24 h. Also, the “% inhibition (IG - ester)” value in experiment [2] (10 mg/kg, 24 hr) worked out at 43%.

As for `N=C(N)c1ccc(-n2ccn(CC(=O)NC(CC(=O)O)c3cccnc3)c2=O)cc1` (stereo not drawn) [Example 22, β-[[[[1-[4-(aminoiminomethyl)phenyl]-2(3H)-oxo-1H-imidazol-3-yl]methyl]carbonyl]amino]-3-pyridinepropanoic acid], the “Hours duration (IV - acid)” value in experiment [3] is 24 h. For the same compound, the “% inhibition (IV - acid)” value in experiment [3] (24 hr) turned out to be 40%. The IC50 in experiment [1] (setting [4]) is 170 nM.

Turning to `CCOC(=O)C[C@H](NC(=O)CN1CCN(c2ccc(C(=N)N)cc2)C1=O)c1cccnc1` [Example 23, Ethyl β-[[[[1-[4-(aminoiminomethyl]phenyl]-4,5-dihydro-2(3H)-oxo-1H-imidazol-3-yl]methyl]carbonyl]amino]-3(S)-pyridinepropanoate], in experiment [2] (5 mg/kg), the “Hours duration (IG - ester)” value was 24 h. Further, the “% inhibition (IG - ester)” value in experiment [2] (5 mg/kg, 24 hr) is listed as 88%.

`N=C(N)c1ccc(N2CCCN(CC(=O)NCCC(=O)O)C2=O)cc1` [Example 26, 3-[[[[1-[4-(Aminoiminomethyl)phenyl]-1,4,5,6-tetrahydro-2(3H)-oxopyrimidin-3-yl]methyl]carbonyl]amino]propanoic acid, trifluoroacetate] returned an inhibition at 1 µM in experiment [1] (setting [4]) of 18%.

For the compound “β-[[[[4-(aminoiminomethyl)phenyl]-4,5-dihydro-2(3H)-oxo-1H-imidazol-3- yl]methyl]carbonyl]amino]-3-pyridinepropanoic acid [Example 24]”, in experiment [3], the “Hours duration (IV - acid)” value is 27 h. For the same compound, the “% inhibition (IV - acid)” value in experiment [3] (27 hr) turned out to be 98%. The same compound yielded a half-maximal inhibitory concentration (IC50) in experiment [1] of 80 nM.
